Data as given in patent US9284317B2, “Substituted imidazo[1,2-a]pyrazines as MPS-1 inhibitors” (Bayer Intellectual Property GmbH, priority 2010, dated 2016).

What follows are compounds tested against human kinase Mps-1 (N-terminally GST-tagged human full length recombinant Mps-1 kinase) (Homo sapiens (Human), UniProt P33981) (assay: Mps-1 Kinase Assay (TR-FRET)). Details: 10 μM ATP, 1 μM biotinylated peptide substrate, 60 min at 22° C., read-out: Mps1 IC50.
Assay type: biochemical
Experimental: The human kinase Mps-1 phosphorylates a biotinylated substrate peptide. Detection of the phosphorylated product is achieved by time-resolved fluorescence resonance energy transfer (TR-FRET) from Europium-labelled anti-phospho-Serine/Threonine antibody as donor to streptavidin labelled with cross-linked allophycocyanin (SA-XLent) as acceptor. Compounds are tested for their inhibition of the kinase activity.
N-terminally GST-tagged human full length recombinant Mps-1 kinase (purchased from Invitrogen, Karslruhe, Germany, cat. no PV4071) was used. As substrate for the kinase reaction a biotinylated peptide of the amino-acid sequence […] (C-terminus in amide form, purchased from Biosynthan GmbH, Berlin) was used.
The concentration of Mps-1 in the assay was adjusted to the activity of the enzyme lot and was chosen appropriate to have the assay in the linear range, typical enzyme concentrations were in the range of about 1 nM (final conc. in the 5 μl assay volume).
The resulting mixture was incubated 1 h at 22° C. to allow the binding of the phosphorylated peptide to the anti-phospho(Ser/Thr)-Europium-antibody. Subsequently the amount of phosphorylated substrate was evaluated by measurement of the resonance energy transfer from the Europium-labelled anti-phospho(Ser/Thr) antibody to the Streptavidin-XLent.

Sequence of human kinase Mps-1 (N-terminally GST-tagged human full length recombinant Mps-1 kinase) (P33981 whole entry): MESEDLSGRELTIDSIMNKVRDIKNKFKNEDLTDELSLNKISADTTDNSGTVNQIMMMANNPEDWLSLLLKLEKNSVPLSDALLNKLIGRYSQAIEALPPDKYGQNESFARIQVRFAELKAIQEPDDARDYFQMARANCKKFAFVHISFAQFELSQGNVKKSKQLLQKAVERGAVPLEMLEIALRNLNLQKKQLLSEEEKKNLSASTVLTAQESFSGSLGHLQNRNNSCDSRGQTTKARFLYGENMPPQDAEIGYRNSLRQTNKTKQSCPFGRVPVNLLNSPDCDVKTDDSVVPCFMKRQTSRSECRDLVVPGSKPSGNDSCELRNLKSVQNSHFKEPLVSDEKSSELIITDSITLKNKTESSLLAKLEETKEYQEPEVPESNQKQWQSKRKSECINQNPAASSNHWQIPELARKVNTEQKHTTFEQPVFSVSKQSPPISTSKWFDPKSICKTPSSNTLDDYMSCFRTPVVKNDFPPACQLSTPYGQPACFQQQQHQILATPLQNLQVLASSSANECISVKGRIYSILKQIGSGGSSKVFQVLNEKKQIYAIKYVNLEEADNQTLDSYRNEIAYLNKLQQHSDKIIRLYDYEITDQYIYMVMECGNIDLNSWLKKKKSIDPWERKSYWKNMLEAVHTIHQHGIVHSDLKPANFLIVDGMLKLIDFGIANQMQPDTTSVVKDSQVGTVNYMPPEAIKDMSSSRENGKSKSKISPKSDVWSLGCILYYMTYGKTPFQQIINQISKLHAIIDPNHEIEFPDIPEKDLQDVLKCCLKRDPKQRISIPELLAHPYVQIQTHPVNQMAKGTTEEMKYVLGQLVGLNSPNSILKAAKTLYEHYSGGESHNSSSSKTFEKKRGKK

| IC50 | Compound |
| --- | --- |
| 21.4 nM | C=Cc1ccc(-c2cn3c(-c4ccc(C(=O)NC5CC5)cc4)cnc3c(NCC(C)C)n2)cc1 [Example 1-20, N-cyclopropyl-4-{6-(4-ethenylphenyl)-8-[(2-methylpropyl)amino]imidazo[1,2-a]pyrazin-3-yl}benzamide] |
| 5.8 nM | C=C(C)c1cn2c(-c3ccc(C(=O)NC4CC4)cc3)cnc2c(NCC(C)C)n1 [Example 1-9, N-cyclopropyl-4-{8-[(2-methylpropyl)amino]-6-(prop-1-en-2-yl)imidazo[1,2-a]pyrazin-3-yl}benzamide] |
| 46.5 nM | C/C=C/c1cn2c(-c3ccc(C(=O)NC4CC4)c(F)c3)cnc2c(NCC(C)(C)O)n1 [Example 1-16, N-cyclopropyl-2-fluoro-4-{8-[(2-hydroxy-2-methylpropyl)amino]-6-[(1E)-prop-1-en-1-yl]imidazo[1,2-a]pyrazin-3-yl}benzamide] |
| 34.3 nM | C/C=C/c1cn2c(-c3ccc(C(=O)NC4CC4)c(Cl)c3)cnc2c(NCCC(F)(F)F)n1 [Example 1-11, 2-chloro-N-cyclopropyl-4-{6-[(1E)-prop-1-en-1-yl]-8-[(3,3,3-trifluoropropyl)amino]imidazo[1,2-a]pyrazin-3-yl}benzamide] |
| 15.4 nM | C/C=C/c1cn2c(-c3ccc(C(=O)NC4CC4)c(F)c3)cnc2c(NCCC(F)(F)F)n1 [Example 1-15, N-cyclopropyl-2-fluoro-4-{6-[(1E)-prop-1-en-1-yl]-8-[(3,3,3-trifluoropropyl)amino]imidazo[1,2-a]pyrazin-3-yl}benzamide] |
| 4.2 nM | CC(C)CNc1nc(C2=CCCCC2)cn2c(-c3ccc(C(=O)NC4CC4)cc3)cnc12 [Example 1-3, 4-{6-(cyclohex-1-en-1-yl)-8-[(2-methylpropyl)amino]imidazo[1,2-a]pyrazin-3-yl}-N-cyclopropylbenzamide] |
| 6.2 nM | CC(C)CNc1nc(C2CC2)cn2c(-c3ccc(C(=O)NC4CC4)cc3)cnc12 [Example 1-5, N-cyclopropyl-4-{6-cyclopropyl-8-[(2-methylpropyl)amino]imidazo[1,2-a]pyrazin-3-yl}benzamide] |
| 10.4 nM | CC(C)CNc1nc(NC(=O)c2ccccn2)cn2c(-c3ccc(C(=O)NC4CC4)cc3)cnc12 [Example 6-1, N-{3-[4-(cyclopropylcarbamoyl)phenyl]-8-[(2-methylpropyl)amino]imidazo[1,2-a]pyrazin-6-yl}pyridine-2-carboxamide] |
| 72.3 nM | C/C=C/c1cn2c(-c3ccc(C(=O)NC4CC4)c(Cl)c3)cnc2c(NCC(C)C)n1 [Example 1-10, 2-chloro-N-cyclopropyl-4-{8-[(2-methylpropyl)amino]-6-[(1E)-prop-1-en-1-yl]imidazo[1,2-a]pyrazin-3-yl}benzamide] |
| 12.3 nM | CC(C)(C)OC(=O)NC/C=C\CCNc1nc(-c2ccccc2)cn2c(-c3ccc(C(=O)NC4CC4)cc3)cnc12 [Example 2-4, tert-Butyl [(2Z)-5-({3-[4-(cyclopropylcarbamoyl)phenyl]-6-phenylimidazo[1,2-a]pyrazin-8-yl}amino)pent-2-en-1-yl]carbamate] |
| 31.9 nM | C/C=C/c1cn2c(-c3ccc(C(=O)NC4CC4)c(F)c3)cnc2c(NCc2ccnn2C)n1 [Example 1-18, N-cyclopropyl-2-fluoro-4-(8-{[(1-methyl-1H-pyrazol-5-yl)methyl]amino}-6-[(1E)-prop-1-en-1-yl]imidazo[1,2-a]pyrazin-3-yl)benzamide] |
| 7.1 nM | COCc1cccc(-c2cn3c(-c4ccc(C(=O)NC5CC5)cc4)cnc3c(NCC(C)C)n2)c1 [Example 1-2, N-cyclopropyl-4-{6-[3-(methoxymethyl)phenyl]-8-[(2-methylpropyl)amino]imidazo[1,2-a]pyrazin-3-yl}benzamide] |
| 94.6 nM | CC(C)(C)OC(=O)NCC#CCCNc1nc(-c2ccccc2)cn2c(-c3ccc(C(=O)NC4CC4)cc3)cnc12 [Example 2-2, tert-Butyl [5-({3-[4-(cyclopropylcarbamoyl)phenyl]-6-phenylimidazo[1,2-a]pyrazin-8-yl}amino)pent-2-yn-1-yl]carbamate] |
| 38.7 nM | C/C=C/c1cn2c(-c3ccc(C(=O)NC4CC4)c(F)c3)cnc2c(NCC(C)C)n1 [Example 1-14, N-cyclopropyl-2-fluoro-4-{8-[(2-methylpropyl)amino]-6-[(1E)-prop-1-en-1-yl]imidazo[1,2-a]pyrazin-3-yl}benzamide] |
| 2.8 nM | CC(C)CNc1nc(C2CC=CCC2)cn2c(-c3ccc(C(=O)NC4CC4)cc3)cnc12 (centres unmarked) [Example 1-6, 4-{6-(cyclohex-3-en-1-yl)-8-[(2-methylpropyl)amino]imidazo[1,2-a]pyrazin-3-yl}-N-cyclopropylbenzamide] |
| 6.1 nM | CC(C)CNc1nc(C2CCCC2)cn2c(-c3ccc(C(=O)NC4CC4)cc3)cnc12 [Example 4-2, 4-{6-cyclopentyl-8-[(2-methylpropyl)amino]imidazo[1,2-a]pyrazin-3-yl}-N-cyclopropylbenzamide] |
| 4.1 nM | C/C=C(\C)c1cn2c(-c3ccc(C(=O)NC4CC4)cc3)cnc2c(NCC(C)C)n1 [Example 1-7, 4-{6-[(2E)-but-2-en-2-yl]-8-[(2-methylpropyl)amino]imidazo[1,2-a]pyrazin-3-yl}-N-cyclopropylbenzamide] |
| 70.6 nM | C/C=C/c1cn2c(-c3ccc(C(=O)NC4CC4)c(Cl)c3)cnc2c(NCc2ccnn2C)n1 [Example 1-13, 2-chloro-N-cyclopropyl-4-(8-{[(1-methyl-1H-pyrazol-5-yl)methyl]amino}-6-[(1E)-prop-1-en-1-yl]imidazo[1,2-a]pyrazin-3-yl)benzamide] |
| 6.2 nM | C/C=C/c1cn2c(-c3ccc(C(=O)NC4CC4)cc3)cnc2c(NCC(C)C)n1 [Example 1-1, N-cyclopropyl-4-{8-[(2-methylpropyl)amino]-6-[(1E)-prop-1-en-1-yl]imidazo[1,2-a]pyrazin-3-yl}benzamide] |
| 12.6 nM | CC(C)CNc1nc(C2CCCCC2)cn2c(-c3ccc(C(=O)NC4CC4)cc3)cnc12 [Example 4-1, 4-{6-cyclohexyl-8-[(2-methylpropyl)amino]imidazo[1,2-a]pyrazin-3-yl}-N-cyclopropylbenzamide] |
| 99.2 nM | C/C=C/c1cn2c(-c3ccc(C(=O)NC4CC4)c(F)c3)cnc2c(NCC2CCCO2)n1 (centres unmarked) [Example 1-17, N-cyclopropyl-2-fluoro-4-{6-[(1E)-prop-1-en-1-yl]-8-[(tetrahydrofuran-2-ylmethyl)amino]imidazo[1,2-a]pyrazin-3-yl}benzamide] |
| 8.3 nM | CC(C)(C)OC(=O)NCCCNc1nc(-c2ccncc2)cn2c(-c3ccc(C(=O)NC4CC4)cc3)cnc12 [Example 2-1, tert-butyl [3-({3-[4-(cyclopropylcarbamoyl)phenyl]-6-(pyridin-4-yl)imidazo[1,2-a]pyrazin-8-yl}amino)propyl]carbamate] |
| 132 nM | C/C=C/c1cn2c(-c3ccc(C(=O)NC4CC4)c(Cl)c3)cnc2c(NCC(C)(C)O)n1 [Example 1-12, 2-chloro-N-cyclopropyl-4-{8-[(2-hydroxy-2-methylpropyl)amino]-6-[(1E)-prop-1-en-1-yl]imidazo[1,2-a]pyrazin-3-yl}benzamide] |
| 1.9 nM | C/C=C(/C)c1cn2c(-c3ccc(C(=O)NC4CC4)cc3)cnc2c(NCC(C)C)n1 [Example 1-4, 4-{6-[(2Z)-but-2-en-2-yl]-8-[(2-methylpropyl)amino]imidazo[1,2-a]pyrazin-3-yl}-N-cyclopropylbenzamide] |
| 64 nM | CC(C)(C)OC(=O)NC/C=C/CCNc1nc(-c2ccccc2)cn2c(-c3ccc(C(=O)NC4CC4)cc3)cnc12 [Example 2-3, tert-Butyl [(2E)-5-({3-[4-(cyclopropylcarbamoyl)phenyl]-6-phenylimidazo[1,2-a]pyrazin-8-yl}amino)pent-2-en-1-yl]carbamate] |
| 1.9 nM | CC(C)CNc1nc(/C=C2\CCC(=O)N2C)cn2c(-c3ccc(C(=O)NC4CC4)cc3)cnc12 [Example 5-1, N-cyclopropyl-4-{6-[(E)-(1-methyl-5-oxopyrrolidin-2-ylidene)methyl]-8-[(2-methylpropyl)amino]imidazo[1,2-a]pyrazin-3-yl}benzamide] |
